According to patent US10844077B2, “Thiazolyl-containing compounds for treating proliferative diseases” (Dana-Farber Cancer Institute, Inc., priority 2014, dated 2020):
Like-named read-outs stand apart in the source and are kept apart here.

What was measured:
Format in all cases: binding
broad panel of kinases [1] = molecular target: broad panel of kinases (Homo sapiens, UniProt Q6XUX3); conditions: RIPK5; 1 μM
broad panel of kinases [2] = molecular target: broad panel of kinases (Homo sapiens, UniProt P53667); conditions: LIMK1; 1 μM
broad panel of kinases [3] = molecular target: broad panel of kinases (Homo sapiens, UniProt P37023); conditions: ACVRL1; 1 μM
broad panel of kinases [4] = molecular target: broad panel of kinases (Homo sapiens, UniProt P42338); conditions: PIK3CB; 1 μM
broad panel of kinases [5] = molecular target: broad panel of kinases (Homo sapiens, UniProt Q16512); conditions: PKN1; 1 μM
broad panel of kinases [6] = molecular target: broad panel of kinases (Homo sapiens, UniProt Q6PHR2); conditions: ULK3; 1 μM
broad panel of kinases [7] = molecular target: broad panel of kinases (Homo sapiens, UniProt P09619); conditions: PDGFRB; 1 μM
broad panel of kinases [8] = molecular target: broad panel of kinases (Homo sapiens, UniProt Q02779); conditions: MLK2; 1 μM
broad panel of kinases [9] = molecular target: broad panel of kinases (Homo sapiens, UniProt Q9UEW8); conditions: STK39; 1 μM
broad panel of kinases [10] = molecular target: broad panel of kinases (Homo sapiens, UniProt P36888, N841I); conditions: FLT3(N841I); 1 μM
broad panel of kinases [11] = molecular target: broad panel of kinases (Homo sapiens, UniProt O94768); conditions: DRAK2; 1 μM
broad panel of kinases [12] = molecular target: broad panel of kinases (Homo sapiens, UniProt Q8NFD2); conditions: ANKK1; 1 μM
broad panel of kinases [13] = molecular target: broad panel of kinases (Homo sapiens, UniProt P10721, D816H); conditions: KIT(D816H); 1 μM
broad panel of kinases [14] = molecular target: broad panel of kinases (Homo sapiens, UniProt P42336, H1047Y); conditions: PIK3CA(H1047Y); 1 μM
broad panel of kinases [15] = molecular target: broad panel of kinases (Homo sapiens, UniProt P29320); conditions: EPHA3; 1 μM
broad panel of kinases [16] = molecular target: broad panel of kinases (Homo sapiens, UniProt Q9P289); conditions: MST4; 1 μM
broad panel of kinases [17] = molecular target: broad panel of kinases (Homo sapiens, UniProt Q9H4B4); conditions: PLK3; 1 μM
broad panel of kinases [18] = molecular target: broad panel of kinases (Homo sapiens, UniProt O76039); conditions: CDKL5; 1 μM
broad panel of kinases [19] = molecular target: broad panel of kinases (Homo sapiens, UniProt P49841); conditions: GSK3B; 1 μM
broad panel of kinases [20] = conditions: 1 μM
broad panel of kinases [21] = molecular target: broad panel of kinases (Homo sapiens, UniProt P21709); conditions: EPHA1; 1 μM
broad panel of kinases [22] = molecular target: broad panel of kinases (Homo sapiens, UniProt P22455); conditions: FGFR4; 1 μM
broad panel of kinases [23] = molecular target: broad panel of kinases (Homo sapiens, UniProt P07332); conditions: FES; 1 μM
broad panel of kinases [24] = molecular target: broad panel of kinases (Homo sapiens, UniProt Q8N568); conditions: DCAMKL2; 1 μM
broad panel of kinases [25] = molecular target: broad panel of kinases (Homo sapiens, UniProt Q8N4C8); conditions: MINK; 1 μM
broad panel of kinases [26] = molecular target: broad panel of kinases (Homo sapiens, UniProt P42336, C420R); conditions: PIK3CA(C420R); 1 μM
broad panel of kinases [27] = molecular target: broad panel of kinases (Homo sapiens, UniProt Q9UM73, C1156Y); conditions: ALK(C1156Y); 1 μM
broad panel of kinases [28] = molecular target: broad panel of kinases (Homo sapiens, UniProt P08581, Y1235D); conditions: MET(Y1235D); 1 μM
broad panel of kinases [29] = molecular target: broad panel of kinases (Homo sapiens, UniProt Q8IWQ3); conditions: BRSK2; 1 μM
broad panel of kinases [30] = molecular target: broad panel of kinases (Homo sapiens, UniProt P10721, A829P); conditions: KIT(A829P); 1 μM
broad panel of kinases [31] = molecular target: broad panel of kinases (Homo sapiens, UniProt Q96SB4); conditions: SRPK1; 1 μM
broad panel of kinases [32] = molecular target: broad panel of kinases (Homo sapiens, UniProt Q9NY57); conditions: YANK2; 1 μM
broad panel of kinases [33] = molecular target: broad panel of kinases (Homo sapiens, UniProt Q15375); conditions: EPHA7; 1 μM
broad panel of kinases [34] = molecular target: broad panel of kinases (Homo sapiens, UniProt P16234); conditions: PDGFRA; 1 μM
broad panel of kinases [35] = molecular target: broad panel of kinases (Homo sapiens, UniProt O00444); conditions: PLK4; 1 μM
broad panel of kinases [36] = molecular target: broad panel of kinases (Homo sapiens, UniProt O95382); conditions: ASK2; 1 μM

broad panel of kinases (Homo sapiens, UniProt P08581, Y1235D), sequence (P08581 25-1390 Y1235D limits assumed): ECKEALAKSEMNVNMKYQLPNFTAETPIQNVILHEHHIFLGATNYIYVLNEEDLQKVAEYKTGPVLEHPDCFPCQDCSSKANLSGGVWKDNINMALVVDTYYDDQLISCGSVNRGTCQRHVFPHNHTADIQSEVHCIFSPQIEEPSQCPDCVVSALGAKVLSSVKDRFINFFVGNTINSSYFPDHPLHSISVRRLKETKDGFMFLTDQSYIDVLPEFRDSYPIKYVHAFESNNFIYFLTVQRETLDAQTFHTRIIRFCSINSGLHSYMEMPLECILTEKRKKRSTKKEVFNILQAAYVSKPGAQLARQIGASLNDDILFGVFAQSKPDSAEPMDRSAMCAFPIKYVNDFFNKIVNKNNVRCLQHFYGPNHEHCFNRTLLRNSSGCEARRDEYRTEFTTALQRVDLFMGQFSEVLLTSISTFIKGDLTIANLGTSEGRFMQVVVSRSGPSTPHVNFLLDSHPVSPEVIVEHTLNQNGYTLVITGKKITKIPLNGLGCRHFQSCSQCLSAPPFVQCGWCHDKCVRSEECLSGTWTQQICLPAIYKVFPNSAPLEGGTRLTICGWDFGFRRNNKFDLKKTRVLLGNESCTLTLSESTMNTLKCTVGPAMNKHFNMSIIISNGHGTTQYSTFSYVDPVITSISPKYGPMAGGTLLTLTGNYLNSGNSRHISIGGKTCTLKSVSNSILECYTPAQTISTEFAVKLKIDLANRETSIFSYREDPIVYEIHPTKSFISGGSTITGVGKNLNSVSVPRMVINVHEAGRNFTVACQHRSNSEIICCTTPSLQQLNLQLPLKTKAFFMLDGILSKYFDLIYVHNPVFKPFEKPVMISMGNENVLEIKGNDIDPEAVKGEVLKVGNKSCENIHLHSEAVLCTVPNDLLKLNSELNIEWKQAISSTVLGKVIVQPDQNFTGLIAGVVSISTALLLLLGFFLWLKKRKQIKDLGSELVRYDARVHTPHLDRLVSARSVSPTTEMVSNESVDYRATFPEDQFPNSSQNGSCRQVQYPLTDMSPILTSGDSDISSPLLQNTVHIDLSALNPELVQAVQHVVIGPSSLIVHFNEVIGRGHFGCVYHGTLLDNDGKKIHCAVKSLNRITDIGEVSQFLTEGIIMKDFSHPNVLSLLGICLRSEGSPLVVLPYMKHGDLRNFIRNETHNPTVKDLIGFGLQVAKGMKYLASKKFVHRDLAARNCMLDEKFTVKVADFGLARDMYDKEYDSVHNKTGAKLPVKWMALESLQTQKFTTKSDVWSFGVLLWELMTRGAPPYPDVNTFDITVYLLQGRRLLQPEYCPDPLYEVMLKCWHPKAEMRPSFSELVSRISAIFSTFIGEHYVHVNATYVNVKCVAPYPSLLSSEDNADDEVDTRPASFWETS
broad panel of kinases (Homo sapiens, UniProt P22455), sequence (P22455 22-802 limits assumed): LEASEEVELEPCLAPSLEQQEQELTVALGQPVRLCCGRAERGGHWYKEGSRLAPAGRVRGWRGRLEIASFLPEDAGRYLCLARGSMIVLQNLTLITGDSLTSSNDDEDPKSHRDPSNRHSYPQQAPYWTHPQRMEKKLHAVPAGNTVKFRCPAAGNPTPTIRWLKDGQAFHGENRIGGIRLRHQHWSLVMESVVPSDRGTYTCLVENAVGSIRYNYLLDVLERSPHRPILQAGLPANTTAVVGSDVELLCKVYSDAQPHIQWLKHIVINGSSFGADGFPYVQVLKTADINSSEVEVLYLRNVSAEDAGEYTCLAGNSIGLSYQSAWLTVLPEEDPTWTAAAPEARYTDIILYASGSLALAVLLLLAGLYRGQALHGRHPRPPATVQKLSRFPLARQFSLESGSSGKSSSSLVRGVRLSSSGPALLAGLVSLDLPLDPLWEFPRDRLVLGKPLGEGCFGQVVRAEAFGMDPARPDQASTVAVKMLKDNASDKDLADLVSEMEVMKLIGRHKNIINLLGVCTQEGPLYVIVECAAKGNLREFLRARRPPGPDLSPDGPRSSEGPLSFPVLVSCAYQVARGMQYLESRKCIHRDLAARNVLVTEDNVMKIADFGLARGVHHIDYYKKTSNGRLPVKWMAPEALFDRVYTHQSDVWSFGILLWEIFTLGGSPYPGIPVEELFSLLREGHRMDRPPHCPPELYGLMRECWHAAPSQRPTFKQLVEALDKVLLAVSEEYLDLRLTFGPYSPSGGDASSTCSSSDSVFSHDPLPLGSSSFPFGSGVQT
broad panel of kinases (Homo sapiens, UniProt P21709), sequence (P21709 26-976 limits assumed): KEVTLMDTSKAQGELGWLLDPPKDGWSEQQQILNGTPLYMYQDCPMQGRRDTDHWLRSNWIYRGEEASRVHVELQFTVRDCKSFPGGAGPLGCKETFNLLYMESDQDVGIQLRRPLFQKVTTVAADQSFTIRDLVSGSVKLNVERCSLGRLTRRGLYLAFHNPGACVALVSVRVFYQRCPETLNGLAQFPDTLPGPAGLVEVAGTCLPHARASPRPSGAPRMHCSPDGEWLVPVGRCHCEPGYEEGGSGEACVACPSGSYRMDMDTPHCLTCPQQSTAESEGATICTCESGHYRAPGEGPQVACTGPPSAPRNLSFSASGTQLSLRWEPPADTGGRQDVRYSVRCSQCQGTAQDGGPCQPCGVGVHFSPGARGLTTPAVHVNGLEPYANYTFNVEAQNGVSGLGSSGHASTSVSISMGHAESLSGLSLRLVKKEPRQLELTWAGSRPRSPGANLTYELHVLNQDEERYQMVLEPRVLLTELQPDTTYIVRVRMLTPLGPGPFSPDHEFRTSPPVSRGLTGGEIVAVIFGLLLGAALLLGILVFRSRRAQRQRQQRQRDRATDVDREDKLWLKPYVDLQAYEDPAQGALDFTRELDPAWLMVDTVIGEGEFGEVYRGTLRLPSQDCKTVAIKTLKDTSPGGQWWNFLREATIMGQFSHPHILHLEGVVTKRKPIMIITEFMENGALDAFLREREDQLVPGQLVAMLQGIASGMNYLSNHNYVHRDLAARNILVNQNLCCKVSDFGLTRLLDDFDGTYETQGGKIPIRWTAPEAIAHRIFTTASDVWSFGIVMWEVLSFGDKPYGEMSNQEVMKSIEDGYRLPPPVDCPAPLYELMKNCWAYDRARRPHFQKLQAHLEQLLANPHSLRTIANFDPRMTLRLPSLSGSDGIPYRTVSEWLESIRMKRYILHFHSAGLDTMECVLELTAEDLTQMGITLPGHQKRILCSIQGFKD
broad panel of kinases (Homo sapiens, UniProt P37023), sequence (P37023 22-503 limits assumed): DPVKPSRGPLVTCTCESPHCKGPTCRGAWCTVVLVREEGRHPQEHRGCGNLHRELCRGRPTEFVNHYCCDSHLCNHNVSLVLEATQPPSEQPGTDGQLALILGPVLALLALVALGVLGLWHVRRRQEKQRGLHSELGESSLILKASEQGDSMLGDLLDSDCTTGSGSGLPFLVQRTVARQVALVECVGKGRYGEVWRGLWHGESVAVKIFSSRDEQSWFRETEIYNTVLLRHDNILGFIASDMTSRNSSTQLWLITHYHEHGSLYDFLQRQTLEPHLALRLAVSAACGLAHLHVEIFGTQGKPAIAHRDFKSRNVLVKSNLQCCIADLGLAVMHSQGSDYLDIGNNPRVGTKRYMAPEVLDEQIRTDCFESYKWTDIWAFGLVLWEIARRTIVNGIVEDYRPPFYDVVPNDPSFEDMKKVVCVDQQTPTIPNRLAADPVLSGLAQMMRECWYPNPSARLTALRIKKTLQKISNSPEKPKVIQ
broad panel of kinases (Homo sapiens, UniProt P10721, D816H), sequence (P10721 26-976 D816H limits assumed): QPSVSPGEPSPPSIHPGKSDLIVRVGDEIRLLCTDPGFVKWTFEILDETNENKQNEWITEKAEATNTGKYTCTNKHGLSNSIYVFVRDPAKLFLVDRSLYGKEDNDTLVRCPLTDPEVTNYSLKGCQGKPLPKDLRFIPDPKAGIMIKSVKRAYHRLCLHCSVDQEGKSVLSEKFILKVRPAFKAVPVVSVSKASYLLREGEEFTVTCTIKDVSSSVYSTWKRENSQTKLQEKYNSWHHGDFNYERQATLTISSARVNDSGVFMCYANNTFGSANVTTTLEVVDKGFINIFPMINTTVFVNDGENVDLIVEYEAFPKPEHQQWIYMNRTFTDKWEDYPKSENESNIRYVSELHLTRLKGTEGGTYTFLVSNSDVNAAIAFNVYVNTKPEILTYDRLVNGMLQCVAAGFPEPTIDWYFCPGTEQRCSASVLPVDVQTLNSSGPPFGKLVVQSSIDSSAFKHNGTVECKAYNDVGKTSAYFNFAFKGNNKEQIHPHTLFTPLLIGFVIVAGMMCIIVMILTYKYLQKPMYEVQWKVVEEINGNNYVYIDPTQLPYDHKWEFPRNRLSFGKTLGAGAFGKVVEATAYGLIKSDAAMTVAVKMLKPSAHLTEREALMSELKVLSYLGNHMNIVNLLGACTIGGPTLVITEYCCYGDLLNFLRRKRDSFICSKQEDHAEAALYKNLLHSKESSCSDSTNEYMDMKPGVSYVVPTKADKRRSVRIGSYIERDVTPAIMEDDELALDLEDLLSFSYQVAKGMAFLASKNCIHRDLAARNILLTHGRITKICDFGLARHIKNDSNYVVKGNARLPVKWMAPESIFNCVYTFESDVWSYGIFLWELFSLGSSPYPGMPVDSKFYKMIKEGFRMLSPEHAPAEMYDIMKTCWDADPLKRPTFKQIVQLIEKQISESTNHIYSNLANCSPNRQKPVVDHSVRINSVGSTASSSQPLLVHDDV
broad panel of kinases (Homo sapiens, UniProt Q9P289), sequence (Q9P289 2-416 limits assumed): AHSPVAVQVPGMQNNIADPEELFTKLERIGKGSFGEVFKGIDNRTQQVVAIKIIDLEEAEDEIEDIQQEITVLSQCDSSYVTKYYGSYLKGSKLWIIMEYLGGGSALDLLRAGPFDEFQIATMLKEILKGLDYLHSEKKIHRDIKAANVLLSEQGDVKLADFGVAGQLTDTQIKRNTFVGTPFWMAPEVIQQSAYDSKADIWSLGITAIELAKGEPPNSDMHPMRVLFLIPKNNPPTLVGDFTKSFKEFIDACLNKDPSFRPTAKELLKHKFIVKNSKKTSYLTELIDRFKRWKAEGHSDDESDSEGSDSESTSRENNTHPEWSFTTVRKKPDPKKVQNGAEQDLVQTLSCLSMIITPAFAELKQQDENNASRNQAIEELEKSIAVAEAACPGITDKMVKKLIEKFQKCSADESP
broad panel of kinases (Homo sapiens, UniProt P10721, A829P), sequence (P10721 26-976 A829P limits assumed): as the sequence (P10721 26-976 D816H limits assumed) above, with H791D, A804P counted along it

SMILES	percent of control binding remaining (lower = stronger binding) (broad panel of kinases [1])	percent of control binding remaining (lower = stronger binding) (broad panel of kinases [2])	percent of control binding remaining (lower = stronger binding) (broad panel of kinases [3])	percent of control binding remaining (lower = stronger binding) (broad panel of kinases [4])	percent of control binding remaining (lower = stronger binding) (broad panel of kinases [5])	percent of control binding remaining (lower = stronger binding) (broad panel of kinases [6])	percent of control binding remaining (lower = stronger binding) (broad panel of kinases [8])	percent of control binding remaining (lower = stronger binding) (broad panel of kinases [9])	percent of control binding remaining (lower = stronger binding) (broad panel of kinases [10])	percent of control binding remaining (lower = stronger binding) (broad panel of kinases [11])	percent of control binding remaining (lower = stronger binding) (broad panel of kinases [12])	percent of control binding remaining (lower = stronger binding) (broad panel of kinases [13])	percent of control binding remaining (lower = stronger binding) (broad panel of kinases [14])	percent of control binding remaining (lower = stronger binding) (broad panel of kinases [15])	percent of control binding remaining (lower = stronger binding) (broad panel of kinases [16])	percent of control binding remaining (lower = stronger binding) (broad panel of kinases [17])	percent of control binding remaining (lower = stronger binding) (broad panel of kinases [18])	percent of control binding remaining (lower = stronger binding) (broad panel of kinases [19])	percent of control binding remaining (lower = stronger binding) (broad panel of kinases [20]; EGFR(L747-E749del, A750P))	percent of control binding remaining (lower = stronger binding) (broad panel of kinases [20]; EGFR(L747-S752del, P753S))	other results
C=CC(=O)N1CC[C@H](Nc2nc(CN3CCOCC3)cc(Nc3ncc(C(=O)Nc4c(C)cccc4C)s3)n2)C1 [Example I-2]	100%	52%	54%	100%	100%	97%	100%	92%	100%	100%	94%	14%	100%	47%	100%	99%	100%	100%	2.2%	3.6%	percent of control binding remaining (lower = stronger binding) (broad panel of kinases [7]): 0%; percent of control binding remaining (lower = stronger binding) (broad panel of kinases [20]; EGFR(L747-T751del, Sins)): 2%; percent of control binding remaining (lower = stronger binding) (broad panel of kinases [20]; FLT3(ITD)): 92%; percent of control binding remaining (lower = stronger binding) (broad panel of kinases [21]): 0.5%; percent of control binding remaining (lower = stronger binding) (broad panel of kinases [22]): 100%; percent of control binding remaining (lower = stronger binding) (broad panel of kinases [23]): 98%; percent of control binding remaining (lower = stronger binding) (broad panel of kinases [24]): 98%; percent of control binding remaining (lower = stronger binding) (broad panel of kinases [25]): 71%; percent of control binding remaining (lower = stronger binding) (broad panel of kinases [26]): 100%; percent of control binding remaining (lower = stronger binding) (broad panel of kinases [27]): 94%; percent of control binding remaining (lower = stronger binding) (broad panel of kinases [28]): 95%; percent of control binding remaining (lower = stronger binding) (broad panel of kinases [29]): 100%; percent of control binding remaining (lower = stronger binding) (broad panel of kinases [30]): 5.8%; percent of control binding remaining (lower = stronger binding) (broad panel of kinases [31]): 91%; percent of control binding remaining (lower = stronger binding) (broad panel of kinases [32]): 100%; percent of control binding remaining (lower = stronger binding) (broad panel of kinases [33]): 100%; percent of control binding remaining (lower = stronger binding) (broad panel of kinases [34]): 4.5%; percent of control binding remaining (lower = stronger binding) (broad panel of kinases [35]): 73%; percent of control binding remaining (lower = stronger binding) (broad panel of kinases [36]): 92%
C=CC(=O)N1CC[C@H](Nc2nccc(Nc3ncc(C(=O)Nc4c(C)cccc4C)s3)n2)C1 [Example I-3]	86%	25%	76%	100%	81%	98%	95%	71%	100%	100%	100%	23%	96%	49%	100%	97%	100%	100%	1.4%	3.6%	% change compared to control (broad panel of kinases [7]): 0%; percent of control binding remaining (lower = stronger binding) (broad panel of kinases [20]; EGFR(L747-T751del, Sins)): 4.2%; percent of control binding remaining (lower = stronger binding) (broad panel of kinases [20]; FLT3(ITD)): 98%; percent of control binding remaining (lower = stronger binding) (broad panel of kinases [21]): 1.6%; percent of control binding remaining (lower = stronger binding) (broad panel of kinases [22]): 100%; percent of control binding remaining (lower = stronger binding) (broad panel of kinases [23]): 93%; percent of control binding remaining (lower = stronger binding) (broad panel of kinases [24]): 93%; percent of control binding remaining (lower = stronger binding) (broad panel of kinases [25]): 66%; percent of control binding remaining (lower = stronger binding) (broad panel of kinases [26]): 99%; percent of control binding remaining (lower = stronger binding) (broad panel of kinases [27]): 84%; percent of control binding remaining (lower = stronger binding) (broad panel of kinases [28]): 92%; percent of control binding remaining (lower = stronger binding) (broad panel of kinases [29]): 95%; percent of control binding remaining (lower = stronger binding) (broad panel of kinases [30]): 10%; percent of control binding remaining (lower = stronger binding) (broad panel of kinases [31]): 96%; percent of control binding remaining (lower = stronger binding) (broad panel of kinases [32]): 96%; percent of control binding remaining (lower = stronger binding) (broad panel of kinases [33]): 100%; percent of control binding remaining (lower = stronger binding) (broad panel of kinases [34]): 6.5%; percent of control binding remaining (lower = stronger binding) (broad panel of kinases [35]): 82%; percent of control binding remaining (lower = stronger binding) (broad panel of kinases [36]): 98%
